Patent US20260085101A1, “NOVEL PLATELET DERIVED GROWTH FACTOR PEPTIDE MIMETIC” (THE UNIVERSITY OF SYDNEY, priority 2022, published 2026)

Tests used:
Assay type in all cases: cell-based
[1] = system: C3H10T½ mouse embryonic fibroblasts; assay: EdU proliferation assay (flow cytometry); conditions: C3H10T½ cells; 10 μM AG1296 with 20 ng/ml PDGF−BB
Method: FIG. 8. Proliferation of C3H10T½ Cells Following Treatment with PDGF and Novel PDGF Mimetic Peptides. Cultured C3H10T½ mouse embryonic fibroblast cells were treated with 20 ng/ml recombinant PDGF−AB or PDGF−BB protein ligands, and 2 μg/ml of novel PDGF mimetics JC5 or JC5a for 24 hr, in the presence of 1% fetal bovine serum (FBS). Percent proliferating cell was determined after a 2 hr pulse with nucleotide analogue EdU at the end of the incubation period. […] Co-treatment of protein/peptides with 10 μM of PDGF receptor antagonist, AG1296, confirmed that PDGF-BB-stimulated proliferation occurred via the PDGF ligand/receptor pathway. […] Error bars represent ±SD, n=3. Statistical analysis was using One-Way Anova: * p<0.05; ** p<0.01; *** p<0.001; **** p<0.0001. The mitotic effects of PDGF mimetic peptides JC5 and JC5a were tested using cultured C3H10T½ mouse embryonic fibroblasts. Proliferation was assayed after a pulse of nucleotide analogue 5-ethynyl-2′-deoxyuridine (EdU) and fluorescent detection using flow cytometry. Cells were treated with 20 ng/ml PDGF−BB or PDGF−AB, and 2 μg/ml of peptides JC5 or JC5a, in the presence of 1% fetal bovine serum (FBS) and DMEM for 24 hr. 10% FBS was used as a positive control, and co-treatments with specific PDGF receptor antagonist, AG1296, was used to ascertain whether proliferation occurred via the PDGF ligand/receptor pathway. Assays were performed in biological triplicate.

PDGF receptor = molecular target: T1, PDGF receptor (Mus musculus, UniProt P05622); assay: Western blot for phosphorylation of ERK in C2C12 cells (PDGF receptor activation); conditions: 10 ng/ml PDGF, 1 μg/ml peptide, vs no treatment and AG1296+PDGF−AB controls
T1 construct: Phosphorylation of ERK following treatment of C2C12 Cells with PDGF and JC5; endogenous in cells; host or cells: C2C12 mouse myoblasts
T1 sequence (P05622 32-1098): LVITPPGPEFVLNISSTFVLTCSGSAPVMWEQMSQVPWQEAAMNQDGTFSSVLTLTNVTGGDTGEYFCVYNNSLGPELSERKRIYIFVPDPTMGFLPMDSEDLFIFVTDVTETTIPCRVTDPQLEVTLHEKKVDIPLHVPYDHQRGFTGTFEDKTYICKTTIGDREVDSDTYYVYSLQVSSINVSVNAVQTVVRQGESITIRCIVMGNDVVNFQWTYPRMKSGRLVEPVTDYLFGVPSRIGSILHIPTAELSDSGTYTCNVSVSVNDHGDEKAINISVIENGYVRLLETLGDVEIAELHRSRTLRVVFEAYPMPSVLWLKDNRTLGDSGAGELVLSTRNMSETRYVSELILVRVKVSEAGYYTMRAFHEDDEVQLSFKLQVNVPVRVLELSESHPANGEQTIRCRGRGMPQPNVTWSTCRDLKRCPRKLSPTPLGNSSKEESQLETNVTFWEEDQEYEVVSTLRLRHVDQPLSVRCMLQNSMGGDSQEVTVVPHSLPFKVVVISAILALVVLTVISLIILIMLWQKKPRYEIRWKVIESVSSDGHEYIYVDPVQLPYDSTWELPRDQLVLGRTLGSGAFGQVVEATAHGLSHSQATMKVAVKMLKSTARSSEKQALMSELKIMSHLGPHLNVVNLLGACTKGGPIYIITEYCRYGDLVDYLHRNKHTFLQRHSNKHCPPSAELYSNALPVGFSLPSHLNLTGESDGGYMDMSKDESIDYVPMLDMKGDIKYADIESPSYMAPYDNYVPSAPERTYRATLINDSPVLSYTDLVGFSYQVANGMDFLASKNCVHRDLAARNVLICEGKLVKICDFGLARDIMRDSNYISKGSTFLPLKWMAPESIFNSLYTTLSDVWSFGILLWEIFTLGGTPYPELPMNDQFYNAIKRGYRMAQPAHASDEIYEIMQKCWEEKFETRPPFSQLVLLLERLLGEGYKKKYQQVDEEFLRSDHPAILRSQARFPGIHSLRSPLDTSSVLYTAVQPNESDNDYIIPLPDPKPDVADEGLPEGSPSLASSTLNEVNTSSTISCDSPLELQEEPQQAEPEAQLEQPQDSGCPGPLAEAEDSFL
Method: FIG. 5. Phosphorylation of ERK following treatment of C2C12 Cells with PDGF and JC5. Western blots for total (ERK) and phosphorylated ERK (pERK) at 42 and 44 kDa show an increase in phosphorylation following treatment with 10 ng/ml PDGF−BB and 1 μg/ml of JC5. FIG. 6. Phosphorylation of ERK following treatment of C2C12 Cells with PDGF and JC5a. Western blots for total (ERK) and phosphorylated ERK (pERK) at 42 and 44 kDa show an increase in phosphorylation 10 minutes post treatment with 10 ng/ml PDGF−BB and 1 μg/ml of novel mimetic peptide JC5a. JC5a maintained this increased phosphorylation of ERK at 30 minutes post treatment. PDGF receptor activation takes place via autophosphorylation of tyrosine […] residues at key sites throughout the intracellular domain. Autophosphorylation engages different signaling pathways, including ERK (MAPK) which participates in proliferation, cell survival, angiogenesis, and chemotactic activity of cells. Phosphorylation of ERK indicates successful activation of the PDGF receptor.

C2C12 mouse myoblasts [2] = assay: Scratch migration (chemotaxis) assay on C2C12 cells
Method: FIG. 2. Migration of C2C12 Mouse […] Cells Treated with PDGF and peptides JC5 and JC5a. C2C12 mouse fibroblast cells migrate across the scratch over 24 hours. Cells were treated with 10 ng/ml PDGF−AB (n=6), PDGF−BB (n=6), and 1 μg/ml of novel PDGF mimetic JC5 (n=6) and JC5a (n=3). […] There was also no statistically significant difference between the PDGF mimetic peptides and PDGF−AB and −BB positive controls. Error bars represent ±SD. The function of Compounds Ia (also referred to herein as JC5) and Ib (also referred to herein as JC5a) has been tested in vitro on the continuous cell line, C2C12 mouse myoblasts. In these in vitro assays recombinant PDGF−AB and −BB have been used as positive controls along with a serum starved no treatment control and the PDGF receptor inhibitor AG1296 co-treated with PDGF−AB as a negative control. The in vitro assays were designed to assess the major known functions of PDGF whilst also considering functions that are relevant to its in vivo applications. These functions were chemotaxis, collagen contraction, vascular tube formation and activation of the PDGF receptors via phosphorylation of Akt and Erk. Chemotaxis was assessed by making a scratch through a 2D culture of C2C12 cells following treatment with the four controls and the peptides JC5 and JC5a. They were then incubated for 24 hours at 37° C. Migration of the cells across the scratch at the conclusion of the incubation was measured and compared to the relevant controls described above. PDGF is a well-established mediator of chemotaxis and is expected to increase migration of the cells across the scratch over the course of 24 hours post treatment.

[3] = system: primary human coronary artery endothelial cells (HCAECs); assay: Vascular tube forming assay on Geltrex; conditions: 24 hours
Method: FIG. 4. Tube formation of Human Coronary Artery Endothelial Cells Treated with PDGF and PDGF Mimetic Peptide JC5. Human coronary artery endothelial cells treated with 50 ng/ml of PDGF−AB and PDGF−BB produced longer tubes than untreated cells and cells treated with the PDGF receptor inhibitor AG1296+PDGF−AB. […] Error bars represent ±SD, n=3/group.
PDGF has a well-established role in angiogenesis in vivo. To simulate this function in vitro a vascular tube forming assay on primary human coronary artery endothelial cells (HCAECs) was carried out. Cells were seeded on top of 3D growth factor reduced Geltrex basement membrane extract and incubated for 24 hours following treatment with the PDGF−AB, PDGF-BB, no treatment control, AG1296+PDGF−AB negative control, and peptides JC5 and JC5a. Over the course of 24 hours the cells form tubes throughout the gel. PDGF is reported to facilitate tube formation of endothelial cells in in vitro 3D assays.
Cells treated with 50 ng/ml of PDGF−AB, PDGF-BB, and 5 μg/ml of JC5 produced longer more uniform tubes than untreated cells and cells treated with the negative control 10 μM PDGF receptor inhibitor AG1296 co-treated with 50 ng/ml PDGF−AB (FIG. 4). The positive controls PDGF−AB and PDGF−BB produced tubes that were 560.7 μm (±53.93) and 616.3 μm (±39.07), respectively. […] The no treatment control and AG1296+PDGF−AB negative control produced tubes that were 305 μm and 307.7 μm, respectively. […] In summary, JC5 has similar vascular tube forming ability to recombinant human PDGF−AB and PDGF-BB.

C2C12 mouse myoblasts [4] = assay: Collagen gel contraction assay with C2C12 cells
Excerpt: FIG. 3. Collagen Contraction of C2C12 Mouse Fibroblasts Treated with PDGF and peptides JC5 and JC5a. […] Error bars represent ±SD, n=8/4. The function of Compounds Ia (also referred to herein as JC5) and Ib (also referred to herein as JC5a) has been tested in vitro on the continuous cell line, C2C12 mouse myoblasts. In these in vitro assays recombinant PDGF−AB and −BB have been used as positive controls along with a serum starved no treatment control and the PDGF receptor inhibitor AG1296 co-treated with PDGF−AB as a negative control. The in vitro assays were designed to assess the major known functions of PDGF whilst also considering functions that are relevant to its in vivo applications. These functions were chemotaxis, collagen contraction, vascular tube formation and activation of the PDGF receptors via phosphorylation of Akt and Erk. Collagen contraction is an important function during wound healing of many tissues including the heart. This can be simulated in vitro using a collagen gel contraction assay. This was assessed using C2C12 cells treated with the positive controls 10 ng/ml recombinant PDGF-BB and PDGF−AB, negative control 10 μM AG1296 co-treated with 10 ng/ml recombinant PDGF−AB, a serum starved no treatment control and 1 μg/ml of the peptides JC5 and JC5a. C2C12 mouse myoblasts were seeded in a 3D collagen gel crosslinked with NaOH and incubated at 37° C. for 24 hours following treatment with the four controls and peptides JC5 and JC5a.

Molecule	effect of AG1296 co-treatment on PDGF−BB-stimulated EdU uptake [1]	phosphorylation of ERK (pERK) (PDGF receptor)	migration of cells across the scratch (C2C12 mouse myoblasts [2]; 24 hours at 37° C., 10 ng/ml PDGF, 1 μg/ml peptides, mean (±SD)) [%]	increase in migration compared to the negative control (Mean Diff) (C2C12 mouse myoblasts [2]; 24 hours, vs AG1296+PDGF−AB negative control) [%]	increase in migration compared to the no treatment control (Mean Diff.) (C2C12 mouse myoblasts [2]; 24 hours, vs no treatment control) [%]	tube length ([3]; 50 ng/ml PDGF, 5 μg/ml JC5, 10 μM AG1296, mean (±SD)) [μm]	increased tube length compared to the negative control (Mean Diff.) ([3]; vs AG1296+PDGF−AB (307.7 μm)) [μm]	increased tube length compared to the no treatment control (Mean Diff.) ([3]; vs no treatment control (305 μm)) [μm]	collagen gel contracted to % of its initial surface area (C2C12 mouse myoblasts [4]; 24-hour incubation, 10 ng/ml PDGF, 1 μg/ml peptides, 10 μM AG1296, mean (±SD)) [%]	difference in collagen gel area versus negative control AG1296 co-treated with PDGF−AB (Mean Diff.) (C2C12 mouse myoblasts [4]; 24 hours, vs negative control (55.25%)) [%]	difference in collagen gel area versus no treatment control (Mean Diff.) (C2C12 mouse myoblasts [4]; 24 hours, vs no treatment control (41.27%)) [%]
COc1cc2ncc(-c3ccccc3)nc2cc1OC [AG1296, reference compound]	significantly inhibited	–	–	–	–	–	–	–	–	–	–
PDGF−BB: recombinant human PDGF-BB protein ligand, positive control	–	phosphorylation of ERK (pERK) can be seen	75.02	58.45	54.70	616.3	308.7	311.3	23.42	31.83	17.86
